Experimental data: patent US20250115597A1, “TYK2 INHIBITORS AND COMPOSITIONS AND METHODS THEREOF” (LYNK PHARMACEUTICALS CO. LTD., priority 2021, published 2025)
pIC50: −log10 of the molar value.

Experiments:
TYK2-JH2 domain = biological target: T1, TYK2-JH2 domain (Homo sapiens, UniProt P29597); test: Binding activity test for JH2 domain of TYK2 (Tb-antibody/tracer FRET)
T1 construct: IC50 on JH2 domain activity (nM)
Description: Binding Activity Test for […] Domain of JAK1 and TYK2 The compounds are prepared in DMSO for 200× top dose, then serial dilute it with 27-fold for 3 more points. Add 8 μL/well in echo source plate, echo will add 75 nL/well with 3-fold serial dilution for 11 points in assay plate. 75 nL DMSO for high control and low control. […] For low control, add 5 μL/well assay buffer. And then spin down at 1000 rpm and centrifuge for 30 seconds. After enzyme system prepared, add 5 μL of Tb-antibody solution into each wells of assay plate. Spin down at 1000 rpm and centrifuge for 30 sec. After Tb-antibody added, also add 5 μL of tracer into the assay plate. Spin down at 1000 rpm and centrifuge for 30 sec. Incubate for 60 mins at 25° C. firstly and then continue to incubate the plate at 4° C. overnight. Read by envision in FRET mode. The Luminescence value was recorded by a multi-label reader Envision (PerkinElmer).

[1] = biological target: T2, Ba/F3-FL-TYK2-P760L cells (Homo sapiens, UniProt P29597, P760L, cells depend on it); test: Anti-proliferative assay, Ba/F3-FL-TYK2-P760L cells (Cell-Titer Glo); format: cell-based; details: 72 h, read-out: BaF3-FL-T2P760L IC50
T2 construct: BaF3-FL-T2P760L (nM)
T2 sequence (P29597 whole entry P760L): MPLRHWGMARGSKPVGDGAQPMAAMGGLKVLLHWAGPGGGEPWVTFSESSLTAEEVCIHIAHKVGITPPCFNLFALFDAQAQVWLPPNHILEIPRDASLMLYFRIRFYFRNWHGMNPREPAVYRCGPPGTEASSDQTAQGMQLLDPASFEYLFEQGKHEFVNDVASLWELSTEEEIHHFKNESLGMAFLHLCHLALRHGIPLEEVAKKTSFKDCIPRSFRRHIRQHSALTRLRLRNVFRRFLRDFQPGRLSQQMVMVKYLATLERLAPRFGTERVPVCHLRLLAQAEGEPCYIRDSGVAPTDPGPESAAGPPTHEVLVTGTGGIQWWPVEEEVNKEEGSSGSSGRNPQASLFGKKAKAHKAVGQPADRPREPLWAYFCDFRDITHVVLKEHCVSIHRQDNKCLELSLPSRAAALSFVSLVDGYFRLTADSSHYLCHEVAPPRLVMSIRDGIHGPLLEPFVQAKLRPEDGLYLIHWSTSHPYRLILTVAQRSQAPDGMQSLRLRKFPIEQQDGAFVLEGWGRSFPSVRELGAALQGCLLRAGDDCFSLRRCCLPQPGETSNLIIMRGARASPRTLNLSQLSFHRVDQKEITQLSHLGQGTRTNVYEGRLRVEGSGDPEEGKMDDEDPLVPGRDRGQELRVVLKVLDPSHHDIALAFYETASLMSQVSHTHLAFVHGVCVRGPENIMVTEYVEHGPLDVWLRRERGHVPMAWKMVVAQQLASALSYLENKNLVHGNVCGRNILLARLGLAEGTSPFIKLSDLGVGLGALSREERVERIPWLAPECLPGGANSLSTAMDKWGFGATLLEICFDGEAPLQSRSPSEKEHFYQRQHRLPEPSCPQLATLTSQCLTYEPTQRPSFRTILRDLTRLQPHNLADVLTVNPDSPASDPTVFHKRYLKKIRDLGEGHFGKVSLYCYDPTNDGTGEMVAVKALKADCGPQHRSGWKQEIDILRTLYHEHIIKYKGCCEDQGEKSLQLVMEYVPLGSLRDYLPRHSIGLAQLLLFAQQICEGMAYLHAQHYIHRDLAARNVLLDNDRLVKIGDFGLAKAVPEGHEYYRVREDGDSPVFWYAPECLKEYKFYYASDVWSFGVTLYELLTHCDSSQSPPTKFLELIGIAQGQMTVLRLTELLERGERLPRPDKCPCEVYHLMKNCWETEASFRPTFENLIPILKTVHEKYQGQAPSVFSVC
Outline: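 Compound exposure ran 72 h at 37 °C in 5% CO2 across nine 3-fold concentrations from a 20 μM top dose, added 24 h after seeding 2000 cells/well.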

T1 sequence (P29597 589-875 limits assumed): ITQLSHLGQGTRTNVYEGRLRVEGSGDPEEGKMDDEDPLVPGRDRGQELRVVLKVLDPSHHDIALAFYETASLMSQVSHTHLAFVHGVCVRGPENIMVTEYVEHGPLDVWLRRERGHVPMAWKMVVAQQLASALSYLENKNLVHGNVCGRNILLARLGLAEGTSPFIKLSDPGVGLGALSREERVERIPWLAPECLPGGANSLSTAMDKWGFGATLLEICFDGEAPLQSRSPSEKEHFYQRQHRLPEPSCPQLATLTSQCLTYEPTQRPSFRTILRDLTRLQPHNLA

| SMILES | pIC50 (TYK2-JH2 domain) | GI50 [1] [nM] |
| --- | --- | --- |
| CCn1ncc2ccc(Nc3cc(NC(=O)C4CC4)ncc3C(=O)OC)c(OC(F)(F)F)c21 [Example 148, Methyl 6-(cyclopropanecarboxamido)-4-((1-ethyl-7-(trifluoromethoxy)-1H-indazol-6-yl)amino)nicotinate] | < 6.53 | 242 |
| [2H]C([2H])([2H])NC(=O)c1cnc(NC(=O)C2CC2)cc1Nc1ccc2cnc(CC)n2c1OC [Example 227, 6-(Cyclopropanecarboxamido)-4-((3-ethyl-5-methoxyimidazo[1,5-a]pyridin-6-yl)amino)-N-(methyl-d3)nicotinamide] | 8.12 | > 5000 |
| CCn1ncc2ccc(Nc3cc(NC(=O)C4CC4)ncc3Cl)c(OC)c21 [Example 272, N-(5-chloro-4-((1-ethyl-7-methoxy-1H-indazol-6-yl)amino)pyridin-2-yl)cyclopropanecarboxamide] | 6.86 | 4760 |
| COC(=O)c1cnc(NC(=O)C2CC2)cc1Nc1cn(C)c2ccn(C)c(=O)c12 [Example 116, Methyl 6-(cyclopropanecarboxamido)-4-((1,5-dimethyl-4-oxo-4,5-dihydro-1H-pyrrolo[3,2-c]pyridin-3-yl)amino)nicotinate] | 8.48 | 102 |
| [2H]C([2H])([2H])NC(=O)c1cnc(NC(=O)C2CC2)cc1Nc1ccc2nc(C)n(CC)c2c1OC [Example 168, 6-(Cyclopropanecarboxamido)-4-((1-ethyl-7-methoxy-2-methyl-1H-benzo[d]imidazol-6-yl)amino)-N-(methyl-d3)nicotinamide] | 8.67 | 728 |
| CCc1nn(C)c2ccc(Nc3cc(NC(=O)C4CC4)ncc3C(=O)OC)c(OC)c12 [Example 149, Methyl 6-(cyclopropanecarboxamido)-4-((3-ethyl-4-methoxy-1-methyl-1H-indazol-5-yl)amino)nicotinate] | 7.20 | 732 |
| [2H]C([2H])([2H])NC(=O)c1cnc(NC(=O)C2CC2)cc1Nc1csc2c(Cl)cn(CC)c(=O)c12 [Example 173, 4-((7-Chloro-5-ethyl-4-oxo-4,5-dihydrothieno[3,2-c]pyridin-3-yl)amino)-6-(cyclopropanecarboxamido)-N-(methyl-d3)nicotinamide] | 9.09 | 86.5 |
| [2H]C([2H])([2H])NC(=O)c1cnc(NC(=O)C(F)(F)F)cc1Nc1ccc2cnn(CC)c2c1OC [Example 271, 4-((1-Ethyl-7-methoxy-1H-indazol-6-yl)amino)-N-(methyl-d3)-6-(2,2,2-trifluoroacetamido)nicotinamide] | 7.59 | 2610 |
| [2H]C([2H])([2H])NC(=O)c1cnc(NC(=O)C2CC2)cc1Nc1cn(C)c2ncn(C(C)C(F)(F)F)c(=O)c12 (stereo not drawn) [Example 217, 6-(Cyclopropanecarboxamido)-N-(methyl-d3)-4-((7-methyl-4-oxo-3-(1,1,1-trifluoropropan-2-yl)-4,7-dihydro-3H-pyrrolo[2,3-d]pyrimidin-5-yl)amino)nicotinamide] | 8.88 | 205 |
| [2H]C([2H])([2H])NC(=O)c1cnc(NC(=O)C2CC2)nc1Nc1ccc2cnn(CC)c2c1OC [Example 135, 2-(Cyclopropanecarboxamido)-4-((1-ethyl-7-methoxy-1H-indazol-6-yl)amino)-N-(methyl-d3)pyrimidine-5-carboxamide] | 8.84 | 128 |
| CCN1C(=O)Cc2ccc(Nc3cc(NC(=O)C4CC4)ncc3C(=O)NC)c(OC)c21 [Example 205, 6-(Cyclopropanecarboxamido)-4-((1-ethyl-7-methoxy-2-oxoindolin-6-yl)amino)-N-methylnicotinamide] | 8.88 | 252 |
| [2H]C([2H])([2H])NC(=O)c1cnc(NC(=O)C2CC2)cc1Nc1cn(C)c2ncn(CC(F)F)c(=O)c12 [Example 194, 6-(Cyclopropanecarboxamido)-4-((3-(2,2-difluoroethyl)-7-methyl-4-oxo-4,7-dihydro-3H-pyrrolo[2,3-d]pyrimidin-5-yl)amino)-N-(methyl-d3)nicotinamide] | 9.12 | 562 |
| [2H]C([2H])([2H])NC(=O)c1nnc(NC(=O)C2CC2)cc1Nc1ccc2cnn(CC)c2c1OC [Example 144, 6-(Cyclopropanecarboxamido)-4-((1-ethyl-7-methoxy-1H-indazol-6-yl)amino)-N-(methyl-d3)pyridazine-3-carboxamide] | 8.89 | 344 |

These reach a higher pIC50 (TYK2-JH2 domain). Values come first.

| pIC50 (TYK2-JH2 domain) | GI50 [1] [nM] | SMILES |
| --- | --- | --- |
| 9.15 | 174 | [2H]C([2H])([2H])NC(=O)c1cnc(NC(=O)C2CC2)cc1Nc1cn(C2CC2)c2ncn(CC)c(=O)c12 [Example 211] |
| 9.21 | 113 | [2H]C([2H])([2H])NC(=O)c1cnc(NC(=O)C2CC2)cc1Nc1cn(C)c2ccn(C(C)C(F)(F)F)c(=O)c12 (single isomer, unassigned) [Example 190A, (R*)-6-(Cyclopropanecarboxamido)-N-(methyl-d3)-4-((1-methyl-4-oxo-5-(1,1,1-trifluoropropan-2-yl)-4,5-dihydro-1H-pyrrolo[3,2-c]pyridin-3-yl)amino)nicotinamide] |
| 9.22 | 244 | [2H]C([2H])([2H])NC(=O)c1cnc(NC(=O)C2CC2)cc1Nc1cn(CC)c2ncn(CC(F)(F)F)c(=O)c12 [Example 212, 6-(Cyclopropanecarboxamido)-4-((7-ethyl-4-oxo-3-(2,2,2-trifluoroethyl)-4,7-dihydro-3H-pyrrolo[2,3-d]pyrimidin-5-yl)amino)-N-(methyl-d3)nicotinamide] |
| 9.25 | 217 | [2H]C([2H])([2H])NC(=O)c1cnc(NC(=O)C2CC2)cc1Nc1cn(CC(F)(F)F)c2ncn(CC)c(=O)c12 [Example 214, 6-(Cyclopropanecarboxamido)-4-((3-ethyl-4-oxo-7-(2,2,2-trifluoroethyl)-4,7-dihydro-3H-pyrrolo[2,3-d]pyrimidin-5-yl)amino)-N-(methyl-d3)nicotinamide] |
| 9.27 | 159 | [2H]C([2H])([2H])NC(=O)c1cnc(NC(=O)C2CC2)cc1Nc1ccn2ncc(CCC)c2c1OC [Example 215, 6-(Cyclopropanecarboxamido)-4-((4-methoxy-3-propylpyrazolo[1,5-a]pyridin-5-yl)amino)-N-(methyl-d3)nicotinamide] |
| 9.46 | 68.6 | [2H]C([2H])([2H])NC(=O)c1nnc(NC(=O)C2CC2)cc1Nc1nn(CC)c2ccn(CC(F)(F)F)c(=O)c12 [Example 218, 6-(Cyclopropanecarboxamido)-4-((1-ethyl-4-oxo-5-(2,2,2-trifluoroethyl)-4,5-dihydro-1H-pyrazolo[4,3-c]pyridin-3-yl)amino)-N-(methyl-d3)pyridazine-3-carboxamide] |
| 9.57 | 75.2 | [2H]C([2H])([2H])NC(=O)c1cnc(NC(=O)C2CC2)cc1Nc1ncn2ncc(C#N)c2c1OC [Example 282, 4-((3-Cyano-4-methoxypyrazolo[1,5-c]pyrimidin-5-yl)amino)-6-(cyclopropanecarboxamido)-N-(methyl-d3)nicotinamide] |
| 9.60 | 48.2 | [2H]C([2H])([2H])NC(=O)c1cnc(NC(=O)C2CC2)cc1Nc1ncn2ncc(Cl)c2c1OC [Example 281, 4-((3-Chloro-4-methoxypyrazolo[1,5-c]pyrimidin-5-yl)amino)-6-(cyclopropanecarboxamido)-N-(methyl-d3)nicotinamide] |
